The METLIN SMRT retention time set (Domingo-Almenara et al. 2019)

Test: gradient 5% acetonitrile 3 min, to 50% in 2 min, to 85% in 15 min, held 3 min, 100 µL/min
Details: column: Zorbax Extend-C18 2.1 x 50 mm; eluents: water / acetonitrile, 0.1% formic acid
How it was run: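 The system's dead and dwell volumes were 40 μL and 900 μL, with a Zorbax Extend-C18 column (2.1 × 50 mm, 1.8 μm) run at 100 μL/min in water and acetonitrile containing 0.1% formic acid each. Pure standards were analyzed in mixtures of ~100 molecules by HPLC–quadrupole time-of-flight mass spectrometry in positive and negative ionization mode. Retention time was assigned from computationally picked, manually inspected adduct peaks.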

SMILES | RP-LC retention time [s]
CS(=O)(=O)N1CCc2ccc(C(=O)N3CCCCC3)cc21 | 717
OCC(O)C1OCOC(C(O)CO)C1O (configuration not stated) | 719
O=C(NCC1OCCc2ccccc21)C(=O)N1CCCCC1 (configuration not stated) | 716
CCOc1ccc(-n2nnc(-c3nc(C)c(C(=O)N4CCC(C(N)=O)CC4)s3)c2C)cc1 | 719
COc1cc(CCC(=O)N2C[C@@H](C(N)=O)[C@H](c3n[nH]c(C)n3)C2)on1 | 566
CC(C)CN1CCN(C(=O)CCC2CCCN(c3cc(NC4CC4)ncn3)C2)CC1 (configuration not stated) | 547
CC(C)NC(=O)NCCN1CCN(c2ccccc2)CC1 | 569
O[Si](CCCN1CCCCC1)(c1ccc(F)cc1)C1CCCCC1 (configuration not stated) | 865
Cn1c(=O)c(N2CCN(C(=O)c3cc(F)cc(F)c3)CC2)nc2cccnc21 | 860
COc1ccc(-c2ccnc3nc(-c4cccs4)nn23)cc1OC | 832
Cc1oc2ncnc(N3CCCC(C(=O)N4CCC(C(N)=O)CC4)C3)c2c1C (configuration not stated) | 620
Cc1ncc2c(n1)C[C@@H]1CC[C@H]2N1S(=O)(=O)c1ccc(F)cc1 | 720
CCN(CC)CCNC(=O)c1sc2ncn(CC(=O)N3CC(C)CC(C)C3)c(=O)c2c1C (configuration not stated) | 658
COc1ccc(OC)c(-c2[nH]ncc2CN2CC(F)(F)C[C@H]2CN2CCOCC2)c1 | 606
COCCC1(NS(C)(=O)=O)CCN(C(=O)NCC(C)C)CC1 | 646
CNC(=O)N1CCCC(c2cccc(C(=O)NCc3cccs3)c2)C1 (configuration not stated) | 719
CC(C)c1ccc(NC(=O)C2CCN(S(=O)(=O)c3cn(C)cn3)CC2)cc1 | 797
COc1ccc(CNC(=O)N2CCC(c3nc(C(=O)N4CCOCC4)c(C)o3)CC2)cc1 | 671

SMILES | RP-LC retention time [s]
O=C(C1c2ccccc2CCN1C(=O)C1CC1)N1CCN(c2ccccc2F)CC1 (configuration not stated) | 947
Cc1ccc(CNC(=O)c2nc3cccnc3n(CC(C)C)c2=O)cc1C | 1010
COc1ccc(N2CC(c3noc(-c4cc(Cl)ccc4F)n3)CC2=O)cc1 (configuration not stated) | 1050
CCn1ncn2cc(S(=O)(=O)Nc3ccc(C)c(C)c3)cc2c1=O | 930
COCCN(CC(=O)N1CCc2sccc2C1COc1ccc(Cl)cc1)C(=O)C1CC1 (configuration not stated) | 931
O=c1c2cc(-c3cccs3)nn2cnn1Cc1nc(-c2ccc(F)cc2)no1 | 1040
COc1cc(=O)c(C(=O)NC(C)C)nn1-c1ccc(C)cc1 | 694
CCC1Oc2ccc(S(=O)(=O)N3CCC(C(=O)NC4CCCCCC4)CC3)cc2NC1=O (configuration not stated) | 951
Cc1ccc(CNC(=O)C2(C)CCN(S(=O)(=O)c3ccccc3Cl)CC2)cc1 | 998
COc1ccc(N2C=C(C#N)S(=O)(=O)c3ccc(F)cc32)cc1OC | 893
CCCSCCCNC(=O)c1cc2n(n1)CCCN(Cc1ccc(C)cc1)C2=O | 852
CS(=O)(=O)N(Cc1ccccn1)C1CN(C(=O)CCc2nc3ccccc3s2)C1 | 656
CCOC(=O)CNC(=O)NCCn1c(C(F)(F)F)nc2ccccc21 | 686
Cc1csc(-c2cc(S(=O)(=O)Nc3ccc(S(N)(=O)=O)cc3)c(C)s2)n1 | 797
CC1CCC(NC(=O)CCn2nc(C(=O)N3c4ccccc4CC3C)ccc2=O)CC1 (configuration not stated) | 851
CC1=C(c2ccc(F)cc2)S(=O)(=O)N=C1N1CCCN(C(=O)NC2CCCC2)CC1 | 820
COc1cnc(NS(=O)(=O)c2ccc(N)cc2)nc1 | 675
CCC(C)NC(=O)c1cc2c(s1)CCN(C(=O)c1ccccc1)C2 (configuration not stated) | 769

Other lines, results leading:

RP-LC retention time [s] | SMILES
921 | Cc1c(C(=O)C(=O)Nc2ccc(F)cc2)c2ccccc2n1C
826 | CCc1ccccc1Nc1c(-c2nc(C)no2)cnc2nc(C)ccc12
705 | Cc1ccc(NC(=O)N2CC(N(Cc3ccncc3)CC(C)C)C2)cc1F
875 | Cc1ccc2[nH]cc(CCNC(=O)CS(=O)Cc3cnn(-c4ccccc4)c3-n3cccc3)c2c1 (configuration not stated)
994 | O=C(N1CCC(c2nc(-c3ccccc3)no2)C1)C1(c2ccccc2)CC1 (configuration not stated)
712 | Cc1ccn2cc(-c3ccc(NS(=O)(=O)c4cc(C)c(C)cc4C)cc3)nc2n1
916 | Cc1cc(-c2nnc(-c3ccc(F)cc3)o2)c(C)n1CC(=O)NCc1ccc2c(c1)OCO2
819 | CCN(c1ccccc1C)S(=O)(=O)c1cc(-c2[nH]ncc2C(=O)N2CCCC2)oc1C
791 | CCc1cccc(NC(=O)Cn2c(N3CCOCC3)nc(CC)cc2=O)c1
1130 | CCCN1C(=O)COc2ccc(-c3noc(-c4ccc(C#N)cc4)n3)cc21
785 | Cc1ccc(NC(=O)Cn2ccc3sccc3c2=O)cc1F
762 | Cc1ccc(NC(=O)N2CCC(n3c(-c4ccoc4)nc4cccnc43)C2)cc1C (configuration not stated)
1090 | COc1ccc(NC(=O)c2cc3c(=O)n(CC(C)C)c4ccccc4n3n2)c(C)c1
1100 | CCCSCCCNc1nc(-c2nnc(-c3ccccc3)o2)nc2ccccc12
1130 | CC(C)(C)CC(=O)Nc1cnc(-c2ccc(Cl)cc2)nc1
964 | O=C(Nc1ccccc1Br)N1CCc2nc(-c3ccccc3)ncc2C1

RP-LC retention time [s] | SMILES
991 | COc1ccccc1-c1nnc(SCc2cccc(C(F)(F)F)c2)o1
706 | CCCC(NC(=O)c1ccc(N(C)C)cc1)C(=O)Nc1nc2ccccc2[nH]1 (configuration not stated)
995 | O=C(Nc1nc(-c2ccccc2)cs1)c1ccc(F)cc1
596 | Cc1cc(-c2nnc(-c3ccccc3)o2)c(C)n1CC(=O)Nc1ccc2c(c1)OCO2
737 | Cc1nc(OCC(=O)Nc2cccc(C)c2C)c2ccccc2n1
1120 | Cc1ccc(Cl)cc1NC(=O)N1CCCC1c1nc(-c2ccccc2C)no1 (configuration not stated)
652 | Cc1ccn2cc(-c3ccc(NC(=O)c4ccccc4Cl)cc3)nc2n1
566 | O=C(NCCc1cnc[nH]1)c1cc(-c2cccnc2)nc2ccccc12
911 | COc1ccc(-c2nnc(Cc3nc(-c4cccc(F)c4)no3)o2)cc1OC
773 | CCn1nnc2ccc(-c3noc(CNC(=O)c4ccccc4)n3)cc21
821 | O=C(CSc1ccc(S(=O)(=O)c2ccccc2)nn1)Nc1ccc2c(c1)OCCO2
734 | O=C(Cc1cccs1)N1CCN(c2ccc(-c3ccco3)nn2)CC1
582 | O=C(Nc1c(F)cccc1F)N1CCc2[nH]cnc2C1c1ccccn1 (configuration not stated)
1030 | CCc1ccc2c(c1)cc(S(=O)(=O)c1ccccc1)c(=O)n2CC(=O)NC1CCCCC1
836 | CC(=O)C1=C(O)C(=O)N(C(C)c2ccccc2)C1c1ccccc1 (configuration not stated)
